Measurements as given in patent US20220280486A1, “COMBINED CANCER THERAPY INVOLVING CHEMICAL ACTIVATION OF INTEGRINS AND TARGETED CELL IMMUNOTHERAPY” (The Regents of the University of California, priority 2019, published 2022).
Entries after “also recorded” stand apart in the source; their conditions may differ.

Tests used:
[1] = tested on: L1210 murine leukemia cells; experiment: Whole cell internalization assay, 8 hr timelapse imaging; format: cell-based, mouse; settings: 100 μM manganese, bone marrow derived macrophages
Method: For timelapse imaging, 30,000 primary bone marrow derived macrophages infected with GFP-CAAX were plated in a 96-well glass bottom MatriPlate (Brooks, Catalog #MGB096-1-2-LG-L). 2 hours prior to imaging, cells were washed into serum-free, phenol free DMEM for imaging. Manganese (SigmaAldrich, M8054) was added at 100 μM 30 min prior to imaging. When indicated, CD47 function-blocking antibody clone miap301 (Biolegend, 127520) was used at […]. 100,000 H2B-mCherry expressing L1210 cells were added and the co-culture was imaged for 8 hr.

RAW264.7 macrophages = experiment: Engulfment of supported lipid bilayer-coated silica beads by macrophages (confocal quantification); format: cell-based; settings: for engulfment of IgG-coated beads in the absence of CD47: manganese treatment, IgG titration
Method: 8.6×10^8 silica beads with a 5.02 μm diameter (10 μl of 10% solids, Bangs Labs, Catalog #SS05N) were washed three times with PBS, mixed with 1 mM SUVs in PBS and incubated at room temperature for 0.5-2 hours with end-over-end mixing to allow for bilayer formation. Beads were then washed three times with PBS to remove excess SUVs and incubated in 100 μl of 0.2% casein (Sigma, catalog #C5890) in PBS for 15 min before protein coupling. […] Purified CD47^ext-His10 was added at […]. Proteins were coupled to the bilayer for 1 hour at room temperature with end-over-end mixing.
Unless otherwise noted, macrophages remained in culture media (DMEM with 10% heat inactivated serum) throughout the experiment. ˜8×10^5 beads were added to well and engulfment was allowed to proceed for 30 min. Cells were fixed with 4% PFA and stained with CellMask (ThermoFisher, catalog #C10045) without membrane permeabilization to label cell boundaries.

[2] = tested on: complement-opsonized CD47+ mouse red blood cells; settings: 1 mM manganese
Method: For the mouse red blood cell internalization assay, 30,000 RAW264.7 macrophages (ATCC) were plated in one well of a 96-well glass bottom MatriPlate (Brooks, MGB096-1-2-LG-L) between 12 and 24 hours prior to the experiment. Mouse red blood cells (RBCs) (Innovative Research, 88R-M001) were washed into PBS and stained with CSFE (Thermo Fisher, C34554) or Alexa Fluor 488 NHS Ester (ThermoFisher, A20000) for 1 hr at room temperature. RBCs were then opsonized with C3bi as previously described (Chow et al., 2004). Briefly, RBCs were incubated with anti-mouse IgM (MyBioSource, MBS524107) for 1 hour at 37° C. A portion of RBCs were separated for IgM controls, and the remaining RBCs were incubated with C5 deficient serum (Sigma-Aldrich, C1163) for 1 hour at 37° C. Macrophages were washed into serum-free HEPES imaging buffer and incubated with 150 ng/mL PMA and 1 mM Manganese or water. ˜1×10^6 RBCs were added to each well and engulfment was allowed to proceed for 1 hour in incubator. Cells were washed with PBS, unengulfed RBCs were lysed with water for 2 min, and cells were fixed with 4% PFA. Remaining non-lysed, non-engulfed RBCs were stained with APC anti-iC3b antibody (Biolegend, 1:200 dilution, 846106) for 30 minutes. Macrophages were stained with CellMask orange (ThermoFisher, 1:5,000 dilution) and Hoechst (Invitrogen, H3570, 1:1,000 dilution) for 15 minutes. […]

Compound: [Mn+2] [manganese, Manganese]
- macrophages engulfing a cancer cell [1]: increased the ability of macrophages to engulf cancer cells; also recorded: allowed for engulfment of whole cancer cells; also recorded: can drive engulfment of whole cancer cells
- engulfment of IgG beads with versus without CD47 (RAW264.7 macrophages; macrophages treated with 1 mM manganese, beads with IgG and CD47 or non-signaling CD47 F37D,T115K): engulfed beads with a similar efficiency whether or not CD47 was conjugated to the supported lipid bilayer
- engulfment of IgG-coated beads in the absence of CD47 (RAW264.7 macrophages): did not trigger bead engulfment on its own or dramatically enhance engulfment of IgG-coated beads in the absence of CD47
- engulfment of IgG-coated beads in the absence of CD47 (RAW264.7 macrophages; listed as Mn2+): did not dramatically enhance engulfment
- bead engulfment triggered on its own (RAW264.7 macrophages; manganese, no IgG): did not trigger bead engulfment on its own
- engulfment of control IgM-treated RBCs [2]: not control IgM-treated RBCs
- engulfment of complement-opsonized RBCs ([2]; RAW264.7 macrophages, 1 hour): dramatically increased engulfment of complement-opsonized RBCs
